This is an account of results in US20250230149A1, “MGLUR5 MODULATING COMPOUNDS, COMPOSITIONS, AND METHODS OF USE” (Allyx Therapeutics, Inc., priority 2022, published 2025).

Holding throughout (type): in vitro ADME
The target in one series is T1, CYP2C9 (Homo sapiens, UniProt P11712).
T1 construct: purchased
Kind of series: CYP inhibition in human liver microsomes, CYP2C9. The text has this:
(§1) In Vitro CYP Inhibition of CYP1A2, CYP2C8, CYP2C9, CYP2C19, CYP2D6 and CYP3A4 in Human Liver Microsomes This study assessed the potential inhibitory effect of Compound 1 Form A toward CYP1A2, CYP2C8, CYP2C9, CYP2C19, CYP2D6 and CYP3A4. Known inhibitors of each CYP were used as positive controls.

The target of series [1] is T2, CYP1A2 (Homo sapiens, UniProt P05177).
T2 construct: purchased
T2 sequence (P05177 1-516): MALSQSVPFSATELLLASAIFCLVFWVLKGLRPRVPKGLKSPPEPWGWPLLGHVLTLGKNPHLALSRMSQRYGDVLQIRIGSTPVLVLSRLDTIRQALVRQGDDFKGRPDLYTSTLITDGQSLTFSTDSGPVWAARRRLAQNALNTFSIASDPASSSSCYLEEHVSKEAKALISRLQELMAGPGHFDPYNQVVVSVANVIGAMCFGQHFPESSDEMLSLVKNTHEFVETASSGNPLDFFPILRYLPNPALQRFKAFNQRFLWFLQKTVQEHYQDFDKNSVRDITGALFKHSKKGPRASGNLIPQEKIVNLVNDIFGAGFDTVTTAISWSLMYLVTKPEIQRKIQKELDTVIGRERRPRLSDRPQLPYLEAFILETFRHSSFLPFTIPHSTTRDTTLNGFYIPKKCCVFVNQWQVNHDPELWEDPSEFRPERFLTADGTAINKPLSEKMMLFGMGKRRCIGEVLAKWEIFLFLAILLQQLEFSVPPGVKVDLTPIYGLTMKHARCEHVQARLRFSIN
Description: CYP450 reaction phenotyping in Supersomes, CYP1A2. From the text:
(§2) In Vitro CYP450 Reaction Phenotyping Study in Supersomes™ Over-Expressing Human CYP Enzymes The CYPP450 enzymes involved in the Phase I metabolism of Compound 1 Form A were investigated in vitro. […] No evidence of Compound 1 metabolism by CYP2B6, CYP2C8, CYP2C9 and CYP2C19 was observed.

In series [2] the target is T3, CYP2D6 (Homo sapiens, UniProt P10635).
T3 construct: purchased
T3 sequence (P10635 whole entry): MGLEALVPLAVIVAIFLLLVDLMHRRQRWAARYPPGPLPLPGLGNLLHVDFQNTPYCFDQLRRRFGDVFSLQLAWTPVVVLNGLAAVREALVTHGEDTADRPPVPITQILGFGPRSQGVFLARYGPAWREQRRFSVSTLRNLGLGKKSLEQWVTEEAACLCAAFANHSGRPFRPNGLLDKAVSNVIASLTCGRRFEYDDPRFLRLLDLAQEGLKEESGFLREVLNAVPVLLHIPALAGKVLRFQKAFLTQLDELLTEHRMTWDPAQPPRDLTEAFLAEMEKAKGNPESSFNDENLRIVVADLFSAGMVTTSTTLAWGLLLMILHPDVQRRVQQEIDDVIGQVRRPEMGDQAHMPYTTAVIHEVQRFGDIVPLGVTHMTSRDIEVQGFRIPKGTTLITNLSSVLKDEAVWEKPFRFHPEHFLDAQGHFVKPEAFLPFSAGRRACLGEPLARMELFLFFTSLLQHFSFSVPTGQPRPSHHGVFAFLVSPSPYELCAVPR
Description: Metabolism dependent inhibition in human liver microsomes, CYP2D6. The text has this: (§3) In Vitro Metabolite Dependent Inhibition of CYP2D6 and CYP3A4 Study in Human Liver Microsomes
(§4) This study assessed the metabolism dependent inhibition potential of Compound 1 Form A toward CYP3A4 and CYP2D6 in human liver microsomes. Troleandomycin and paroxetine, known metabolism dependent inhibitors of CYP3A4 and CYP2D6, respectively were used as positive controls.

The target of the next series is T4, CYP2C8 (Homo sapiens, UniProt P10632).
T4 construct: purchased
Description: CYP inhibition in human liver microsomes, CYP2C8.
Description: as §1

In another series the target is T5, OATP1B1 (Homo sapiens, UniProt Q9Y6L6).
T5 construct: host or cells: unspecified cell test systems
T5 sequence (Q9Y6L6 whole entry): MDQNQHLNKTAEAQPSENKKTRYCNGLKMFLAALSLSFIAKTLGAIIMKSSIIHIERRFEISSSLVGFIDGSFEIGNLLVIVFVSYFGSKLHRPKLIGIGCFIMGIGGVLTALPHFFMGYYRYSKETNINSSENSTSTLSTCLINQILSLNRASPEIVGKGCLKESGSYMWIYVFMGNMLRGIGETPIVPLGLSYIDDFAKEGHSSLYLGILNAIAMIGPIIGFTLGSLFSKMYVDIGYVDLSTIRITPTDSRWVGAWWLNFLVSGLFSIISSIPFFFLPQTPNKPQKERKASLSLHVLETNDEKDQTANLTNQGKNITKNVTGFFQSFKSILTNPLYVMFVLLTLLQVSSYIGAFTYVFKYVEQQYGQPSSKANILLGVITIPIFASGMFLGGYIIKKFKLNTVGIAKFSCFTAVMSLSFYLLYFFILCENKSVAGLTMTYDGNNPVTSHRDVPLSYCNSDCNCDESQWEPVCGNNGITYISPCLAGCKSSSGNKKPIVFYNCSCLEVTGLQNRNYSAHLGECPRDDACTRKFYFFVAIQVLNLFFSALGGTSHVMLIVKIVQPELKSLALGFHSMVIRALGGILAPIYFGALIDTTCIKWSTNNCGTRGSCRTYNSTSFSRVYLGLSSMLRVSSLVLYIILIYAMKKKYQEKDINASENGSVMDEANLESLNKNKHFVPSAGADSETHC
Kind of series: In vitro inhibition of human transporter OATP1B1. The note with it: in vitro cell test system; read-out: IC50, inhibition of probe substrate transport via OATP1B1. As to the method: (§5) The in vitro potential for Compound 1 Form A to be an inhibitor of the human transporters P-glycoprotein (P-gp), […] (OATP) 1B1 and OATP1B3 was assessed in various in vitro cell test systems, and of BSEP in membrane vesicles.
(§6) A decrease in the transporter-mediated activity of probe substrate in the presence of a positive control inhibitor, determined from incubations run alongside test compound, confirmed that the in vitro test systems were capable of identifying transporter inhibitors.

Series [3] addresses T6, CYP3A4 (Homo sapiens, UniProt P08684).
T6 construct: purchased
Description: Metabolism dependent inhibition in human liver microsomes, CYP3A4.
Description: as §3, §4

The target of series [4] is T6, CYP3A4. Kind of series: CYP inhibition in human liver microsomes, CYP3A4.
Description: as §1

For series [5], the target named is T3, CYP2D6. Kind of series: CYP450 reaction phenotyping in Supersomes, CYP2D6.
Description: as §2

The target in series [6] is T2, CYP1A2. Description: CYP inhibition in human liver microsomes, CYP1A2.
Description: as §1

For the next series, the target named is T7, P-glycoprotein (P-gp) (Homo sapiens, UniProt P08183).
T7 construct: host or cells: unspecified cell test systems
Description: In vitro inhibition of human transporter P-gp. The following applies: in vitro cell test system; read-out: IC50, inhibition of probe substrate transport via P-gp. How it is done:
as §5, §6

Series [7] concerns the target T3, CYP2D6. Kind of series: CYP inhibition in human liver microsomes, CYP2D6.
Description: as §1

The target of the next series is CYP2C19 (Homo sapiens, UniProt P33261). Kind of series: CYP inhibition in human liver microsomes, CYP2C19. Also on record: CYP2D6 and CYP3A4 in Human Liver Microsomes; from tissue; host or cells: human liver microsomes.
Sequence of CYP2C19 (P33261 whole entry): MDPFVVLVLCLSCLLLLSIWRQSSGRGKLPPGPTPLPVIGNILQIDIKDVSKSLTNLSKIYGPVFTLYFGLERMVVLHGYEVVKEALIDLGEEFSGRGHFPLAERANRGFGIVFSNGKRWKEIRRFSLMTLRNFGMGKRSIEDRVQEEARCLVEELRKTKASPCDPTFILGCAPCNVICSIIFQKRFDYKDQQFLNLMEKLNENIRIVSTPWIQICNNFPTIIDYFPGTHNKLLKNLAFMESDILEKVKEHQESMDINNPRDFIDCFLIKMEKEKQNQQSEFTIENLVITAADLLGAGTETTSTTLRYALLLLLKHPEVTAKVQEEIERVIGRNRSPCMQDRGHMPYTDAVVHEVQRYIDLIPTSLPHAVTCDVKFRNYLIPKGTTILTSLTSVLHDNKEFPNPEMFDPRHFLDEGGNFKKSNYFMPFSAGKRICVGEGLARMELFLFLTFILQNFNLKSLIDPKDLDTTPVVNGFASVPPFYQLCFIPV
Description: as §1

Series [8] deals with T6, CYP3A4. Description: CYP450 reaction phenotyping in Supersomes, CYP3A4.
Description: as §2

A further series addresses BSEP (Homo sapiens, UniProt O95342). Description: In vitro inhibition of BSEP in membrane vesicles. The note with it: read-out: IC50, inhibition of probe substrate transport via BSEP. As to the method:
as §5, §6

The target in another series is T8, OATP1B3 (Homo sapiens, UniProt Q9NPD5).
T8 construct: host or cells: unspecified cell test systems
T8 sequence (Q9NPD5 whole entry): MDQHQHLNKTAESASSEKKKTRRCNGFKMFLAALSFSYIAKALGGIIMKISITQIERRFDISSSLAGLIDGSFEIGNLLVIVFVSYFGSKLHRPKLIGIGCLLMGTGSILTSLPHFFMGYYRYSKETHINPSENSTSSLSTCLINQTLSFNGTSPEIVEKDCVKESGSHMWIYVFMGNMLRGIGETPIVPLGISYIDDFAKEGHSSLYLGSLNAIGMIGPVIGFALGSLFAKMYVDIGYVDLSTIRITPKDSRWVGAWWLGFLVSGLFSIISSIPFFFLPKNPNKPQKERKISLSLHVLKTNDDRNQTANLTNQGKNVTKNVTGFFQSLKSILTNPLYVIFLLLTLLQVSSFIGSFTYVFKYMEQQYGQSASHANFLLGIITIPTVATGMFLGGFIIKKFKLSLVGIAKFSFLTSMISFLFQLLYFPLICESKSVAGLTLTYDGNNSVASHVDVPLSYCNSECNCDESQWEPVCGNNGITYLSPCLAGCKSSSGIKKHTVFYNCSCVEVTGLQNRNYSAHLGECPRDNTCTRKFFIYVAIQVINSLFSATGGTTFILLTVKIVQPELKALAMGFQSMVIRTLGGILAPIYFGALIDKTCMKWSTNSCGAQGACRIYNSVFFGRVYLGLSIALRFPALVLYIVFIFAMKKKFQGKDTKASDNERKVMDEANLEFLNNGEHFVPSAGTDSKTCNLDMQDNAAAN
Description: In vitro inhibition of human transporter OATP1B3. The following applies: in vitro cell test system; read-out: IC50, inhibition of probe substrate transport via OATP1B3. How it is done:
as §5, §6

T6 sequence (P08684 whole entry): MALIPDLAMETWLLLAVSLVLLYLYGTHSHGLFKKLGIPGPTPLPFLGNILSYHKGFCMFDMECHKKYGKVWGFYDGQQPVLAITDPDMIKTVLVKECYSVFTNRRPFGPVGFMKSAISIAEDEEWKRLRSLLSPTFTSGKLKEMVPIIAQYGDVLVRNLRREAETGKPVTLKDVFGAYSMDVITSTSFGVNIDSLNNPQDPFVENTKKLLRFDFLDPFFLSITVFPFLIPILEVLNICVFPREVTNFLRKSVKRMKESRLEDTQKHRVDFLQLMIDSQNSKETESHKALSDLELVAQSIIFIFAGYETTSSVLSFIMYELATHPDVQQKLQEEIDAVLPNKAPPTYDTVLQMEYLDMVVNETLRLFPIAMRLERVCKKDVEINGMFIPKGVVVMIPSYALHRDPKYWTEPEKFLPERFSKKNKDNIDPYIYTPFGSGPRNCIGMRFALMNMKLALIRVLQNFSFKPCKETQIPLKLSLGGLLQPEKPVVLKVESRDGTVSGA
Sequence of BSEP (O95342 whole entry): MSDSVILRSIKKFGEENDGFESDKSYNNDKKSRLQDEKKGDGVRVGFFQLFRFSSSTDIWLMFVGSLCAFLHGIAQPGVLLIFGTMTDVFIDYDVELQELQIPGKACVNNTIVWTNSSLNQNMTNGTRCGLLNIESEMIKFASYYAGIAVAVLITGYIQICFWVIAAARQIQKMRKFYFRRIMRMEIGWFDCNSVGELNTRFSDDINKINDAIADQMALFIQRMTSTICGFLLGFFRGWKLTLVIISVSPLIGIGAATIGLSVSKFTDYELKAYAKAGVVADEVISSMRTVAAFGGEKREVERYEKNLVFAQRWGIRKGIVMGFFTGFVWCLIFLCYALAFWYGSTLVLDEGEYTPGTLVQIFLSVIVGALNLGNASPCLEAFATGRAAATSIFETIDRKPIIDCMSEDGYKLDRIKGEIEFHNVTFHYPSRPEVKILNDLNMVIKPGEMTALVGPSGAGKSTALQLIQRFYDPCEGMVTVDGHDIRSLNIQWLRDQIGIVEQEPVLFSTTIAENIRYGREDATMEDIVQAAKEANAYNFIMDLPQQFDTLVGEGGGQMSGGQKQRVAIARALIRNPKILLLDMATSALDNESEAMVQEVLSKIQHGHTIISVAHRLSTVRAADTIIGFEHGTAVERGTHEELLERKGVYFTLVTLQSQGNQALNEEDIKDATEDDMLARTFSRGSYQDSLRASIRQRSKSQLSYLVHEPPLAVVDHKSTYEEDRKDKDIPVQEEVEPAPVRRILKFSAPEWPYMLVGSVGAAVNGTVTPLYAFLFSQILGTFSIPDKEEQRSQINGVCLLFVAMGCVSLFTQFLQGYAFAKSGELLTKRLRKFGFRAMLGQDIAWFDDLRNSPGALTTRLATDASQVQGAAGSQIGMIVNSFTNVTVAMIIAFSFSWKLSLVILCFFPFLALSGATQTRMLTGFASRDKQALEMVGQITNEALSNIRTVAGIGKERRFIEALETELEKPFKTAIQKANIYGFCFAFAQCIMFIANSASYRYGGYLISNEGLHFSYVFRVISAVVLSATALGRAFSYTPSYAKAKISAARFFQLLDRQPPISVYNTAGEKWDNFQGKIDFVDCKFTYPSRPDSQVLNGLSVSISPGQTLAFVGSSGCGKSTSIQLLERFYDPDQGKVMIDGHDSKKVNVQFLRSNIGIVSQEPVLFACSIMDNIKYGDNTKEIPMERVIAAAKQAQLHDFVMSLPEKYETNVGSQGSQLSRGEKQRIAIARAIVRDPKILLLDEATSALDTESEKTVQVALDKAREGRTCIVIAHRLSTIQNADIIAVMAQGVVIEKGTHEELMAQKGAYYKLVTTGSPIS
T1 sequence (P11712 whole entry): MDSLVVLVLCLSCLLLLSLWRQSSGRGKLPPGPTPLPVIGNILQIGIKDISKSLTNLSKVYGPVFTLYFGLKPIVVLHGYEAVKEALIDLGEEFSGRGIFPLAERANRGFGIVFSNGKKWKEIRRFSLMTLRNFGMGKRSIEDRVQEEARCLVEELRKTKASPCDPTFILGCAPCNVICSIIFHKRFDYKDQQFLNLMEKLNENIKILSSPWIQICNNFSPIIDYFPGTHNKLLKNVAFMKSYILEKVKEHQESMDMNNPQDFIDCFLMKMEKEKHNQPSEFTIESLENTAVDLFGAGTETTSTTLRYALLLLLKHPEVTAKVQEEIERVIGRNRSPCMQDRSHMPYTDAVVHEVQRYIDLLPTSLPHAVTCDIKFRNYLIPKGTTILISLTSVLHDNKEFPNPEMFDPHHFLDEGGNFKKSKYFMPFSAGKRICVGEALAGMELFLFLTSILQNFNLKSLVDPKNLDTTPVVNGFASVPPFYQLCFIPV

For `O=C1N[C@H](c2cncc(C#Cc3ccccc3)c2)[C@@H](c2ccccc2Cl)O1` [Compound 1 Form A, (4R,5R)-5-(2-chlorophenyl)-4-(5-(phenylethynyl)pyridin-3-yl)oxazolidin-2-one], the IC50 stood at 12.4 µM on CYP2C9; 52.1 µM at CYP2C8; 6.74 µM on OATP1B1; 55.7 µM against CYP3A4 [4] (atorvastatin only); 1.95 µM against CYP1A2 [6]; 27.7 µM on P-glycoprotein (P-gp). In addition, the IC50 against CYP2C19 was determined as 6.17 µM; on BSEP it was 13.9 µM; on OATP1B3, 32 µM. The “predicted contribution to total metabolism” value on CYP1A2 [1] (CYP1A2, relative activity of factors method) is 43.1%; at CYP2D6 [5] (CYP2D6, relative activity of factors method) it was 18%; on CYP3A4 [8] (CYP3A4, relative activity of factors method), 38.9%. The CLint is on record as 0.261 μL/min/pmol CYP on CYP1A2 [1] (Supersomes, CYP1A2); 0.984 μL/min/pmol CYP at CYP2D6 [5] (Supersomes, CYP2D6); 0.0786 μL/min/pmol CYP on CYP3A4 [8] (Supersomes, CYP3A4). Moreover, the half-life came to 1.07 h on CYP1A2 [1] (human, Supersomes over-expressing human CYP1A2, Supersomes, CYP1A2); 0.233 h on CYP2D6 [5] (human, Supersomes over-expressing human CYP2D6, Supersomes, CYP2D6); 2.93 h at CYP3A4 [8] (human, Supersomes over-expressing human CYP3A4, Supersomes, CYP3A4). Moreover, on CYP2D6 [2], the “metabolism dependent inhibition of CYP2D6” value is listed as “not a metabolism dependent inhibitor”. The “metabolism dependent inhibition of CYP3A4” value at CYP3A4 [3] is recorded as “not a metabolism dependent inhibitor”. Further, the “inhibition of CYP3A4” value against CYP3A4 [4] (midazolam as substrate) and against CYP3A4 [4] (nifedipine as substrate) was “no inhibition” each time. Further, at CYP2D6 [7], the “inhibition of CYP2D6” value is reported as “no inhibition”.
